# Organism: Rattus norvegicus
# Test: DrugMatrix - Regimen: Daily Repeat
# Format: toxicity, organism-based, Sprague-Dawley
# Set-up: regimen Daily Repeat, gender Male, age 6-8 weeks
# Conditions: in vivo, po, route oral GAVAGE, […]; for ABSOLUTE BASOPHIL / ABSOLUTE EOSINOPHIL / ABSOLUTE LYMPHOCYTE / ABSOLUTE MONOCYTE / ABSOLUTE SEGMENTED NEUTROPHIL / BASOPHIL / EOSINOPHIL / ERYTHROCYTE COUNT / HEMATOCRIT / HEMOGLOBIN / LEUKOCYTE COUNT / LYMPHOCYTE / MEAN CORPUSCULAR HEMOGLOBIN / MEAN CORPUSCULAR HEMOGLOBIN CONCENTRATION / MEAN CORPUSCULAR VOLUME / MONOCYTE / NEUTROPHIL / NUCLEATED RED BLOOD CELLS / PLATELET COUNT: tissue Blood; for ALANINE AMINOTRANSFERASE / ALBUMIN / ALKALINE PHOSPHATASE / ASPARTATE AMINOTRANSFERASE / BLOOD UREA NITROGEN / CARBON DIOXIDE / CHLORIDE / CHOLESTEROL / CREATINE PHOSPHOKINASE / CREATININE / GLUCOSE / LACTATE DEHYDROGENASE / LIPASE / PHOSPHORUS / POTASSIUM / SODIUM / TOTAL BILIRUBIN / TOTAL PROTEIN / URIC ACID: tissue Plasma
# [1] = 100 mg/kg, 120 h, dose level M1, time 5 day
# [2] = 610 mg/kg, 72 h, dose level High, time 3 day
# [3] = 610 mg/kg, 120 h, dose level High, time 5 day
compound,measurement,setting,value
CC(C)(c1ccc(O)cc1)c1ccc(O)cc1 [BISPHENOL A],ABSOLUTE BASOPHIL,[1],0 CELLS/uL
same,ABSOLUTE EOSINOPHIL,[1],0 CELLS/uL
same,ABSOLUTE LYMPHOCYTE,[1],6683.33 CELLS/uL
same,ABSOLUTE MONOCYTE,[1],63.33 CELLS/uL
same,ABSOLUTE SEGMENTED NEUTROPHIL,[1],353.33 CELLS/uL
same,BASOPHIL,[1],0%
same,EOSINOPHIL,[1],0%
same,ERYTHROCYTE COUNT,[1],5.4 x10E6/uL
same,HEMATOCRIT,[1],32.4%
same,HEMOGLOBIN,[1],12.83 G/DL
same,LEUKOCYTE COUNT,[1],7.1 x10E3/uL
same,LYMPHOCYTE,[1],94%
same,MEAN CORPUSCULAR HEMOGLOBIN,[1],23.8 pg
same,MEAN CORPUSCULAR HEMOGLOBIN CONCENTRATION,[1],39.63 G/DL
same,MEAN CORPUSCULAR VOLUME,[1],59.87 fL
same,MONOCYTE,[1],1%
same,NEUTROPHIL,[1],5%
same,NUCLEATED RED BLOOD CELLS,[1],0 /100WBC
same,PLATELET COUNT,[1],1281.67 x10E3/uL
same,ALANINE AMINOTRANSFERASE,[1],80.33 u/L
same,ALBUMIN,[1],4.13 G/DL
same,ALKALINE PHOSPHATASE,[1],398.67 u/L
same,ASPARTATE AMINOTRANSFERASE,[1],90.33 u/L
same,BLOOD UREA NITROGEN,[1],13.33 mg/dL
same,CARBON DIOXIDE,[1],29.33 mmol/L
same,CHLORIDE,[1],100.33 MEQ/L
same,CHOLESTEROL,[1],54.67 mg/dL
same,CREATINE PHOSPHOKINASE,[1],295 u/L
same,CREATININE,[1],0.26 mg/dL
same,GLUCOSE,[1],161 mg/dL
same,LACTATE DEHYDROGENASE,[1],102.33 u/L
same,LIPASE,[1],13.33 u/L
same,PHOSPHORUS,[1],9.57 mg/dL
same,POTASSIUM,[1],5.37 MEQ/L
same,SODIUM,[1],144.17 MEQ/L
same,TOTAL BILIRUBIN,[1],0.17 mg/dL
same,TOTAL PROTEIN,[1],5.77 G/DL
same,URIC ACID,[1],0.83 mg/dL
same,ABSOLUTE BASOPHIL,[2],0 CELLS/uL
same,ABSOLUTE EOSINOPHIL,[2],22.33 CELLS/uL
same,ABSOLUTE LYMPHOCYTE,[2],6406 CELLS/uL
same,ABSOLUTE MONOCYTE,[2],44.67 CELLS/uL
same,ABSOLUTE SEGMENTED NEUTROPHIL,[2],760.33 CELLS/uL
same,BASOPHIL,[2],0%
same,EOSINOPHIL,[2],0.33%
same,ERYTHROCYTE COUNT,[2],5.65 x10E6/uL
same,HEMATOCRIT,[2],34.33%
same,HEMOGLOBIN,[2],13.43 G/DL
same,LEUKOCYTE COUNT,[2],7.23 x10E3/uL
same,LYMPHOCYTE,[2],88.33%
same,MEAN CORPUSCULAR HEMOGLOBIN,[2],23.77 pg
same,MEAN CORPUSCULAR HEMOGLOBIN CONCENTRATION,[2],39.1 G/DL
same,MEAN CORPUSCULAR VOLUME,[2],60.8 fL
same,MONOCYTE,[2],0.67%
same,NEUTROPHIL,[2],10.67%
same,NUCLEATED RED BLOOD CELLS,[2],0.33 /100WBC
same,PLATELET COUNT,[2],1156 x10E3/uL
same,ALANINE AMINOTRANSFERASE,[2],84.33 u/L
same,ALBUMIN,[2],3.93 G/DL
same,ALKALINE PHOSPHATASE,[2],316.33 u/L
same,ASPARTATE AMINOTRANSFERASE,[2],77.67 u/L
same,BLOOD UREA NITROGEN,[2],15.67 mg/dL
same,CARBON DIOXIDE,[2],31.33 mmol/L
same,CHLORIDE,[2],100 MEQ/L
same,CHOLESTEROL,[2],64.33 mg/dL
same,CREATINE PHOSPHOKINASE,[2],263.67 u/L
same,CREATININE,[2],0.18 mg/dL
same,GLUCOSE,[2],157.33 mg/dL
same,LACTATE DEHYDROGENASE,[2],115.67 u/L
same,LIPASE,[2],10 u/L
same,PHOSPHORUS,[2],10.37 mg/dL
same,POTASSIUM,[2],5.53 MEQ/L
same,SODIUM,[2],143.73 MEQ/L
same,TOTAL BILIRUBIN,[2],0.27 mg/dL
same,TOTAL PROTEIN,[2],5.73 G/DL
same,URIC ACID,[2],0.7 mg/dL
same,ABSOLUTE BASOPHIL,[3],0 CELLS/uL
same,ABSOLUTE EOSINOPHIL,[3],0 CELLS/uL
same,ABSOLUTE LYMPHOCYTE,[3],8347 CELLS/uL
same,ABSOLUTE MONOCYTE,[3],82 CELLS/uL
same,ABSOLUTE SEGMENTED NEUTROPHIL,[3],671 CELLS/uL
same,BASOPHIL,[3],0%
same,EOSINOPHIL,[3],0%
same,ERYTHROCYTE COUNT,[3],5.73 x10E6/uL
same,HEMATOCRIT,[3],35.8%
same,HEMOGLOBIN,[3],14.07 G/DL
same,LEUKOCYTE COUNT,[3],9.1 x10E3/uL
same,LYMPHOCYTE,[3],91.67%
same,MEAN CORPUSCULAR HEMOGLOBIN,[3],24.6 pg
same,MEAN CORPUSCULAR HEMOGLOBIN CONCENTRATION,[3],39.3 G/DL
same,MEAN CORPUSCULAR VOLUME,[3],62.63 fL
same,MONOCYTE,[3],0.67%
same,NEUTROPHIL,[3],7.67%
same,NUCLEATED RED BLOOD CELLS,[3],0.33 /100WBC
same,PLATELET COUNT,[3],1180 x10E3/uL
same,ALANINE AMINOTRANSFERASE,[3],106.33 u/L
same,ALBUMIN,[3],4.3 G/DL
same,ALKALINE PHOSPHATASE,[3],452.33 u/L
same,ASPARTATE AMINOTRANSFERASE,[3],135.67 u/L
same,BLOOD UREA NITROGEN,[3],12 mg/dL
same,CARBON DIOXIDE,[3],29 mmol/L
same,CHLORIDE,[3],100.5 MEQ/L
same,CHOLESTEROL,[3],60.33 mg/dL
same,CREATINE PHOSPHOKINASE,[3],592 u/L
same,CREATININE,[3],0.11 mg/dL
same,GLUCOSE,[3],154 mg/dL
same,LACTATE DEHYDROGENASE,[3],112 u/L
same,LIPASE,[3],48.33 u/L
same,PHOSPHORUS,[3],8.77 mg/dL
same,POTASSIUM,[3],5.17 MEQ/L
same,SODIUM,[3],144.95 MEQ/L
same,TOTAL BILIRUBIN,[3],0.27 mg/dL
same,TOTAL PROTEIN,[3],5.53 G/DL
same,URIC ACID,[3],0.6 mg/dL

# Source: ChEMBL document CHEMBL3885881, “DrugMatrix”
